Reference: ChEMBL document CHEMBL1201862, “PubChem BioAssay data set” (2004)
Blank lines part the entries; values can stand above or below the compound they belong to. Active and inactive are the calls of the source.

Experiments:
Format in all cases: functional
[1] = target: Voltage-dependent T-type calcium channel subunit alpha-1H (Homo sapiens, UniProt O95180); assay: inhibition of CACNA1H calcium flux – cell-based, SynthLib3 library, HEK293 Cav3.2, fluorescence (AID 493041)
[2] = target: Metabotropic glutamate receptor 6 (Homo sapiens, UniProt O15303); assay: Modulation of the Metabotropic Glutamate Receptor mGluR4: Selectivity at mGluR6. [Related pubchem assays (depositor defined):AID2437, AID2807]
[3] = target: Metabotropic glutamate receptor 2 (Rattus norvegicus, UniProt P31421); assay: mGluR2 modulation, off-target check – cell-based, rat, selectivity assay for mGluR4 modulator project (AID 2188)
[4] = target: Metabotropic glutamate receptor 3 (Rattus norvegicus, UniProt P31422); assay: Modulation of the Metabotropic Glutamate Receptor mGluR4: Selectivity at mGluR3. [Related pubchem assays (depositor defined):AID2437, AID2807]
[5] = target: Metabotropic glutamate receptor 8 (Rattus norvegicus, UniProt P70579); assay: Modulation of the Metabotropic Glutamate Receptor mGluR4: Selectivity at mGluR8. [Related pubchem assays (depositor defined):AID2437, AID2807]
[6] = target: Metabotropic glutamate receptor 1 (Rattus norvegicus, UniProt P23385); assay: Modulation of the Metabotropic Glutamate Receptor mGluR4: Selectivity at mGluR1. [Related pubchem assays (depositor defined):AID2437, AID2807]
[7] = target: T1, Delta-type opioid receptor (Homo sapiens, UniProt P41143); assay: HTS Image-Based Screen for Antagonists of the DOR Receptor. [Related pubchem assays (depositor defined):AID1777, AID1785, AID1786, AID2133]
Mu-type opioid receptor [8] = target: T2, Mu-type opioid receptor (Homo sapiens, UniProt P35372); assay: HTS Image-Based Screen for Agonists of the MOR Receptor. [Related pubchem assays (depositor defined):AID1777, AID1785, AID1786, AID2133]
[9] = target: T1, Delta-type opioid receptor; assay: HTS Image-Based Screen for Agonists of the DOR Receptor. [Related pubchem assays (depositor defined):AID1777, AID1786, AID2133]
[10] = target: T3, Kappa-type opioid receptor (Homo sapiens, UniProt P41145)
[11] = target: T3, Kappa-type opioid receptor; remark: listed apart in the source
[12] = target: T3, Kappa-type opioid receptor; assay: SAR analysis of small molecule agonists of the kappa opioid receptor via a luminescent beta-arrestin assay. [Related pubchem assays (depositor defined):AID1777, AID1786, AID1966, AID2133, AID2136, AID2348, AID2352, AID2357, AID2359, AID2370, AID2420, AID2478, AID2491, AID2492, AID2493, AID2497, AID2498, AID2500, AID449737, AID488822, AID488842]
Mu-type opioid receptor [13] = target: T2, Mu-type opioid receptor; assay: mu opioid receptor activators, image-based, SAR follow-up (AID 2352)
[14] = target: T1, Delta-type opioid receptor; assay: DOR agonists, SAR follow-up, image-based (AID 2370)
[15] = target: T3, Kappa-type opioid receptor; assay: kappa opioid receptor blockers, image-based, SAR follow-up (AID 2348)
Mu-type opioid receptor [16] = target: T2, Mu-type opioid receptor; assay: mu opioid receptor blockers – image-based, SAR follow-up (AID 2420);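 also: compounds added before stimulation of receptor with agonist DAMGO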
[17] = target: T3, Kappa-type opioid receptor; assay: kappa opioid receptor activation potency – imaging, image-based, SAR follow-up (AID 2359)
[18] = target: T1, Delta-type opioid receptor; assay: delta opioid receptor blockers – image-based, SAR follow-up (AID 2357)

T1 sequence (P41143 whole entry): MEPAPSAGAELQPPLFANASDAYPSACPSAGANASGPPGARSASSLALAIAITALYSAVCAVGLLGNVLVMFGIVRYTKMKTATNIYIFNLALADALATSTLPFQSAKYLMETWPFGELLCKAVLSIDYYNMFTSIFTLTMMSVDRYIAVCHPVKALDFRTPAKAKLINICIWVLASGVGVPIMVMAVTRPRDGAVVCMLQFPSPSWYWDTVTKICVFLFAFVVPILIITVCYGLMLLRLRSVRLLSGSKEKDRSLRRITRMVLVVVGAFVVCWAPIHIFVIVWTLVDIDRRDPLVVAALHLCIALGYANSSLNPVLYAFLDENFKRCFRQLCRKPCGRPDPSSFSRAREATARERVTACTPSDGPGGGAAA
T3 sequence (P41145 whole entry): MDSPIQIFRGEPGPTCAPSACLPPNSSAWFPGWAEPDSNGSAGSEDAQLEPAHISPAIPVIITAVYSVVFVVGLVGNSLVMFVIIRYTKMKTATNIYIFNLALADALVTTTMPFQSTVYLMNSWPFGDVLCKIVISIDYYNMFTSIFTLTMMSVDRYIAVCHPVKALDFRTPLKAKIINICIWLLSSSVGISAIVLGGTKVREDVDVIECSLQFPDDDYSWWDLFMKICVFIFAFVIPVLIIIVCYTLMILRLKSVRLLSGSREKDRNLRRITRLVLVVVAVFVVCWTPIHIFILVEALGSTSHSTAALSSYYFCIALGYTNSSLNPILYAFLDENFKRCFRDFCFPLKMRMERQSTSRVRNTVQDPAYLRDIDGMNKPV
T2 sequence (P35372 whole entry): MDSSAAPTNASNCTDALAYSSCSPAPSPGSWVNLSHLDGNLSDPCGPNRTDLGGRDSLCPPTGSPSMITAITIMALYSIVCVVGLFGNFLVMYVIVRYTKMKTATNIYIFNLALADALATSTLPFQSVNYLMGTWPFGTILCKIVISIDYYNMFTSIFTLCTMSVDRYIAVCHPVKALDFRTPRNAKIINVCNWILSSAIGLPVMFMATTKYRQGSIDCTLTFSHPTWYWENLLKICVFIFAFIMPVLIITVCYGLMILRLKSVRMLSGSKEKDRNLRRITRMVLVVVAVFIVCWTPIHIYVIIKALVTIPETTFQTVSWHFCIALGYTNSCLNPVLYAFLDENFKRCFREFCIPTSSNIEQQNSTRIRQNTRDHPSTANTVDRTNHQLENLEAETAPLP
Chain of Metabotropic glutamate receptor 1 (P23385 whole entry): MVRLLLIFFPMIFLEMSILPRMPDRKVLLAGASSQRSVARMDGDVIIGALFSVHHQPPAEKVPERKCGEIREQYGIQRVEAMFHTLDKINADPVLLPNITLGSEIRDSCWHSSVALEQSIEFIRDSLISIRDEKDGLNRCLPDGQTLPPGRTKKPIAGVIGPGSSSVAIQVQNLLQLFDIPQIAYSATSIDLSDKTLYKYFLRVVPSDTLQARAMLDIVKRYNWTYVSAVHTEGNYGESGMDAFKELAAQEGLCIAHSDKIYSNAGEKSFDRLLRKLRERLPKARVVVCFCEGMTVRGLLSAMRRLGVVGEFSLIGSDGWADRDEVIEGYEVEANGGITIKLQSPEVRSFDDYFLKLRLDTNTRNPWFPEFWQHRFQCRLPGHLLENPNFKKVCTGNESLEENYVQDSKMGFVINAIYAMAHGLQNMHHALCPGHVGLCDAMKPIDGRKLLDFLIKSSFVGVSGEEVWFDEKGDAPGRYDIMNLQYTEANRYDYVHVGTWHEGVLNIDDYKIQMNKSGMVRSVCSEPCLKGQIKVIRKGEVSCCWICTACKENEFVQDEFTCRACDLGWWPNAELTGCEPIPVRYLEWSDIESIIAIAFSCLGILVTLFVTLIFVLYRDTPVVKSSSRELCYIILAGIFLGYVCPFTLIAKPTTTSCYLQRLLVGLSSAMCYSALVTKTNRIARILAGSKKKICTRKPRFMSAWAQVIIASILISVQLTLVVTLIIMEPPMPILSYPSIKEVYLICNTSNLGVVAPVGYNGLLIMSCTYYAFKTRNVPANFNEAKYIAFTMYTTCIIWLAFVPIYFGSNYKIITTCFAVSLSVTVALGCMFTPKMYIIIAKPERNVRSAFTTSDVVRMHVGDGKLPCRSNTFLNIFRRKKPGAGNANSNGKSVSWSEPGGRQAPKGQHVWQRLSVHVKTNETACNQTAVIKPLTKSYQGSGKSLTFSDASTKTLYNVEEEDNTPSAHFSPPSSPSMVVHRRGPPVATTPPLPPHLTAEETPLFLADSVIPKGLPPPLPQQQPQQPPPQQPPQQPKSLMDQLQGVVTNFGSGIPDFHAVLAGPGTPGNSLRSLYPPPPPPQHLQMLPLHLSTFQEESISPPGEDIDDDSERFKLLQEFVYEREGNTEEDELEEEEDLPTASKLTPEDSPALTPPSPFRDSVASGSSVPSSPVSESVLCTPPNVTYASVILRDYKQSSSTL
Chain of Voltage-dependent T-type calcium channel subunit alpha-1H (O95180 whole entry): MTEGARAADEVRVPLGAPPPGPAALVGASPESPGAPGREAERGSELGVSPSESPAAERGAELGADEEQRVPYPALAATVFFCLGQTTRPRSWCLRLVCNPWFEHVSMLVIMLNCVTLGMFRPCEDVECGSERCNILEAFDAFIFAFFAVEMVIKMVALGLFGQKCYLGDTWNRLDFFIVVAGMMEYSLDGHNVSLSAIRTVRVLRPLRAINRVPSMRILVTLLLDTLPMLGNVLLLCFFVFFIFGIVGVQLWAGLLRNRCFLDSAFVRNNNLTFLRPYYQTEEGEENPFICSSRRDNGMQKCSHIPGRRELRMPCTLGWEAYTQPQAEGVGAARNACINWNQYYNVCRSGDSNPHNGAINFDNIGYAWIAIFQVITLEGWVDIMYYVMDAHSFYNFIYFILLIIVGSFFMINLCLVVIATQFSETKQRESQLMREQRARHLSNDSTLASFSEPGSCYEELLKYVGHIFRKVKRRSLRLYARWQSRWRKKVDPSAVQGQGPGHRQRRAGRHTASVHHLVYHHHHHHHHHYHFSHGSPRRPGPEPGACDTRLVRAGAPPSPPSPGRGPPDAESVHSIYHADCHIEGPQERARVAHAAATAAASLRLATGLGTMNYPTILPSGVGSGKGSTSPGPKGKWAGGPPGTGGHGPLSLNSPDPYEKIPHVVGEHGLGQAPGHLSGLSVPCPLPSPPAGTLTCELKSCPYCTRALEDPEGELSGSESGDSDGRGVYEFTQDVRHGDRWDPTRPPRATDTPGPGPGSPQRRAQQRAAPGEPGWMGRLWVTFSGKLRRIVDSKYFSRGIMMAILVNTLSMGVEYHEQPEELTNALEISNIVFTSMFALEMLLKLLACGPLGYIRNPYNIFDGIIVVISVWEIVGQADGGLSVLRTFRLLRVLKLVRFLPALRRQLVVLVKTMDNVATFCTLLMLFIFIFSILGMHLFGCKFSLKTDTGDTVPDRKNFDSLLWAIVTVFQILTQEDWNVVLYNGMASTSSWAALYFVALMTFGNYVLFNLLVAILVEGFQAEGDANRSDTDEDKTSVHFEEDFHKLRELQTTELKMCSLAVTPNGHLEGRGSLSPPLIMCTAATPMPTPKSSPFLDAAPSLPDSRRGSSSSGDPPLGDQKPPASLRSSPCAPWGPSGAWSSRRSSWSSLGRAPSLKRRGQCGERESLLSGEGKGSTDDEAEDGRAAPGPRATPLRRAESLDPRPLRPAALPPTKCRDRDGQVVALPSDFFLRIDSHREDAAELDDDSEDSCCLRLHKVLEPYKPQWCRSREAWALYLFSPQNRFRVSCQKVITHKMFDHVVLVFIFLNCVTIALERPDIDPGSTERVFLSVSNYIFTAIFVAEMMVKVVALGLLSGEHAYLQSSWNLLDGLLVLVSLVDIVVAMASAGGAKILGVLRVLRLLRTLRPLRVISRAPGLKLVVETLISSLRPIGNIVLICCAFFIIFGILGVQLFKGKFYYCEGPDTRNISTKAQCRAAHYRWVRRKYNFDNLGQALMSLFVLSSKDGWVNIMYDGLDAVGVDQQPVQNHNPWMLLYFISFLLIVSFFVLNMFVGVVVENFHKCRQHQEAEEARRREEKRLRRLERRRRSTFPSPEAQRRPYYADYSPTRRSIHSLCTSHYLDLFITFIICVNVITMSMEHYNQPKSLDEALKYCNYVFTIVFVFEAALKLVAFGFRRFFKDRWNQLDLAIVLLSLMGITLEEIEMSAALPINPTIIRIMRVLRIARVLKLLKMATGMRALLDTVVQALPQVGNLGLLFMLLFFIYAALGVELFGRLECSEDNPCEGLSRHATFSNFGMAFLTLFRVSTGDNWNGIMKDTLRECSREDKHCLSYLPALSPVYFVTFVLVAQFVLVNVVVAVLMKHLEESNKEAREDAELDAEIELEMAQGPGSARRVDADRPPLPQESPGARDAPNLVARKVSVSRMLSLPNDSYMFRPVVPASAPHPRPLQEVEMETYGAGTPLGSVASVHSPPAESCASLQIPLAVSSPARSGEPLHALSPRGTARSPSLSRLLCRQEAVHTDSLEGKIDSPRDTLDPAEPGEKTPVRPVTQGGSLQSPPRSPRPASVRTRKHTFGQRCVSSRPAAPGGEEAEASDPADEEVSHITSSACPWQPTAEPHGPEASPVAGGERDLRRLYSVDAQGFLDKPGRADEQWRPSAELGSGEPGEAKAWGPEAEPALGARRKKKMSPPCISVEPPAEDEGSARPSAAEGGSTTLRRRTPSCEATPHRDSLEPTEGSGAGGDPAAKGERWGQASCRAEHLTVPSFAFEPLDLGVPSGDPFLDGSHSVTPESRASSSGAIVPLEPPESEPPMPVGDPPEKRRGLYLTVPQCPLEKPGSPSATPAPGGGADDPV

EC50 [1]: 3000 nM (active)
SMILES: O=C(NCC1[C@H]2CN(CC3CCCC3)C[C@@H]12)c1cc(Cl)cc(Cl)c1 (stereo partly drawn)

EC50 [2]: 2510 nM (active)
EC50 [3]: 787 nM (inactive)
EC50 [4]: 514 nM (inactive)
EC50 [5]: 11000 nM (inactive)
EC50 [6]: 1400 nM (inactive)
SMILES: O=C(Nc1ccc(N2C(=O)[C@H]3[C@H](C2=O)[C@H]2C=C[C@@H]3C2)c(Cl)c1)c1ccccn1

IC50 [7]: > 32000 nM (inactive)
EC50 (Mu-type opioid receptor [8]): > 32000 nM (inactive)
EC50 [9]: > 32000 nM (inactive)
EC50 [10]: 1860 nM
EC50 [11]: 2130 nM
EC50 [12]: 2070 nM (active)
EC50 (Mu-type opioid receptor [13]): > 32000 nM (inactive)
EC50 [14]: > 32000 nM (inactive)
IC50 [15]: > 32000 nM (inactive)
IC50 (Mu-type opioid receptor [16]): > 32000 nM (inactive)
EC50 [17]: 806 nM (active)
IC50 [18]: > 32000 nM (inactive)
SMILES: CCC(C)(C(=O)NC1CCCC1)N(Cc1cccs1)C(=O)c1ccccn1 (stereo not drawn)
